From US8951993B2, “Phosphorus containing compounds as protein kinase inhibitors” (Jiangsu Hansoh Pharmaceutical Co., Ltd., priority 2011, dated 2015) come the findings set out here.

The structures appear in SMILES notation. Where two headings read alike, the source gives them in different places.

In data set [1] the target is T1, ALK (Homo sapiens, UniProt Q9UM73). Description: ALK enzyme activity assay (HTRF KinEASE). The settings on record: ATP 25 μM, 30° C. 30 minutes. Set-up: purchased Millipore Company (Billerica, Mass., USA). Format: biochemical. How it is done: ALK Enzyme Activity Assay:
ALK kinase was purchased from Millipore Company (Billerica, Mass., USA). HTRF®KinEASET™ was purchased from Cisbio Company (Bedford, Mass., USA). The assay was conducted according to the procedure provided in the assay kit. In brief, incubation was carried out in the kinase buffer containing ALK (0.3 ng/μL), ATP (25 μM), TK substrate-biotin (10 μM), DTT (1 mM), MgCl2 (5 mM), MnCl2 (5 mM) in the presence of the tested articles at various concentrations in 384-well plate at 30° C. for 30 minutes. The reaction was stopped by addition of Sa-XL665 in EDTA solution, and the phosphorylated substrate was detected with a proprietary phospho-specific monoclonal antibody labeled with Eu^3+-Cryptate and a proprietary biotinylated kinase substrate detected using XL665 labeled streptavidin. IC50 value was calculated using median-effect method (Chou 2006).
Target sequence in this assay (Q9UM73 19-1620): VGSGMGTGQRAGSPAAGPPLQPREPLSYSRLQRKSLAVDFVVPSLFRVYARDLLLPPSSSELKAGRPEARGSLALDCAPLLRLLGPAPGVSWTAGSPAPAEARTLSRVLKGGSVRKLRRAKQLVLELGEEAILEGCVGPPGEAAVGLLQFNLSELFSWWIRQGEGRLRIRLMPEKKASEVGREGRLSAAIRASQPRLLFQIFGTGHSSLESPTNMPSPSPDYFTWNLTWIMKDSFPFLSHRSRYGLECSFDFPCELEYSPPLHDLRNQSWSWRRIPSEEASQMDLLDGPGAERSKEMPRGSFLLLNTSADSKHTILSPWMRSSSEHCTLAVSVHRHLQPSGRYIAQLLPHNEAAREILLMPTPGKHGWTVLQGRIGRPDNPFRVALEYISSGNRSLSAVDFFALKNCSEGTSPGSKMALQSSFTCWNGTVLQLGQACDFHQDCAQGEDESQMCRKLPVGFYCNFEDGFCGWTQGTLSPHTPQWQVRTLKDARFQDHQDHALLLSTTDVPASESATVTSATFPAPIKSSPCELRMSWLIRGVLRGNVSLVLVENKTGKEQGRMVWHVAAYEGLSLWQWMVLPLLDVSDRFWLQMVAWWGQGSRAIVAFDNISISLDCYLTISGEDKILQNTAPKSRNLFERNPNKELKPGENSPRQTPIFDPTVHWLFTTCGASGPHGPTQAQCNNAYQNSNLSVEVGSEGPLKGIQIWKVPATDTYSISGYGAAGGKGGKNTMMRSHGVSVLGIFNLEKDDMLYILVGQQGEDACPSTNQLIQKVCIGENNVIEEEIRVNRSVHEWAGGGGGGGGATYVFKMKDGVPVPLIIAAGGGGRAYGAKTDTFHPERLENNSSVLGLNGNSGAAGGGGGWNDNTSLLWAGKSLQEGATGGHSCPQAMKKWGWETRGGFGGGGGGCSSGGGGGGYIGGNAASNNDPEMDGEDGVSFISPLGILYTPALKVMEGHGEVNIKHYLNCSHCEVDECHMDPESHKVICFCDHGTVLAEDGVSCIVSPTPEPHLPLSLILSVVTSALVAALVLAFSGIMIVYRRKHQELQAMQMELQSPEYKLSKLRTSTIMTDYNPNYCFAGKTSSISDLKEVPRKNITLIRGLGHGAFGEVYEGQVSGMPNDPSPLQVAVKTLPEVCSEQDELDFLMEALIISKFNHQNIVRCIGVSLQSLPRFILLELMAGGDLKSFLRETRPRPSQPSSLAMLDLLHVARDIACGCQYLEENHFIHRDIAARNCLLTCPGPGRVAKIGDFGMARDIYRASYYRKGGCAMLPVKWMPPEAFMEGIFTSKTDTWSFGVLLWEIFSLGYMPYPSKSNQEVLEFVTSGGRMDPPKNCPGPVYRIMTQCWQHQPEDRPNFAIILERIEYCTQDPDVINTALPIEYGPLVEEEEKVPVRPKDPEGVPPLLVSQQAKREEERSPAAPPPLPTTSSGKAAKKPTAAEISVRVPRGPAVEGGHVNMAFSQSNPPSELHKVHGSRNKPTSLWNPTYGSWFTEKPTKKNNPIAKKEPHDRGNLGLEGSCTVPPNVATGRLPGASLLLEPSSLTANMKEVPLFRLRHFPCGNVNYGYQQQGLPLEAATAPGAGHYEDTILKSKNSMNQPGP
(In general: Time-resolved FRET reads energy transfer from a long-lived donor to a nearby acceptor.)

A further data set deals with Karpas299. Description: Cell proliferation assay (MTS / BrdU), Karpas299. Particulars: Homo sapiens, KARPAS-299; 72 hours, 2% FBS. It is filed as cell-based. How it is done: (§1) Karpas299 and SU-DHL-1 cells were purchased from Deutsche Sammlung von Mikroorganismen and Zellkulturen (Germany). H2228 was purchased from American Type Culture Collection (USA). All cells were cultured in the recommended medium and serum concentration. Cells were maintained at 37° C. in a humidified atmosphere with 5% CO2. For ALK kinase phosphorylation, cells were seeded in 96-well plates overnight in medium supplemented with 10% fetal bovine serum […]. After 24 hours, the medium was removed and cells were cultured in serum-free medium at 37° C. in the presence of various concentrations of the test articles for 1 hour. After incubation with the tested articles, cells were washed once with HBSS supplemented with 1 mM Na3VO4 and protein lysates were generated. Subsequently, phosphorylation of ALK was assessed by a sandwich ELISA method using an immobilized anti-total-ALK antibody and an anti-phospho-ALK antibody (pY1604) as a detection antibody. IC50 value was calculated using median-effect method. (Chou 2006).
(§2) For cell proliferation assay, cells were seeded in 96-well pates at low density at 37° C. in medium supplemented with 10% FBS and after 24 hours were switched to low serum medium (2% FBS). Cells were further incubated in the presence of the test articles at various concentrations at 37° C. for 72 hours. Two assays were employed to determine the relative cell numbers. One is a 3-(4,5-dimethylthiazol-2-yl)-5-(3-carboxymethoxyphenyl)-2-(4-sulfophenyl)-2H-tetrazolium (MTS) assay using a CellTiter 96® Aqueous Non-Radioactive Cell Proliferation kit (Promega), and the other is a BrdU incorporation assay using a DELFIA® Cell Proliferation Kit (Perkin Elmer). IC50 value was calculated using median-effect method (Chou 2006).

In the next data set the test system is H2228. Description: Cell proliferation assay (MTS / BrdU), H2228. Format: cell-based. The settings on record: Homo sapiens, NCI-H2228; 72 hours, 2% FBS. As to the method: as §1, §2
The test system of the next data set is SU-DHL-1. Description: Cell proliferation assay (MTS / BrdU), SU-DHL-1. It is filed as cell-based. The settings on record: Homo sapiens, 72 hours, 2% FBS. How it is done:
as §1, §2

Data set [2] is described as follows: Pharmacokinetic assay, intravenous and oral administration. Particulars: plasma; for half-life: after oral administration in rats or dogs; for bioavailability: oral administration in rats or dogs, read-out: oral bioavailabilty. Format: in vivo, Sprague-Dawley rats or beagle dogs. How it is done:
The tested articles were given to Sprague-Dawley rats or beagle dogs by intravenous and oral administration. Plasma samples were prepared from blood samples which were collected at various time points. The plasma concentrations of the tested articles were determined by specific LC-MS/MS analytical methods. Pharmacokinetic parameters were calculated with WinNonlin®.

The target of data set [3] is T1, ALK. Description: Inhibition of ALK phosphorylation (sandwich ELISA, pY1604), cell line not given. It is filed as cell-based. Also on record: fused on or other part: Q9HC35 (Echinoderm microtubule-associated protein-like 4). The settings on record: 1 hour, serum-free. As to the method: as §1
Target sequence in this assay (Q9UM73 1058-1620 limits assumed): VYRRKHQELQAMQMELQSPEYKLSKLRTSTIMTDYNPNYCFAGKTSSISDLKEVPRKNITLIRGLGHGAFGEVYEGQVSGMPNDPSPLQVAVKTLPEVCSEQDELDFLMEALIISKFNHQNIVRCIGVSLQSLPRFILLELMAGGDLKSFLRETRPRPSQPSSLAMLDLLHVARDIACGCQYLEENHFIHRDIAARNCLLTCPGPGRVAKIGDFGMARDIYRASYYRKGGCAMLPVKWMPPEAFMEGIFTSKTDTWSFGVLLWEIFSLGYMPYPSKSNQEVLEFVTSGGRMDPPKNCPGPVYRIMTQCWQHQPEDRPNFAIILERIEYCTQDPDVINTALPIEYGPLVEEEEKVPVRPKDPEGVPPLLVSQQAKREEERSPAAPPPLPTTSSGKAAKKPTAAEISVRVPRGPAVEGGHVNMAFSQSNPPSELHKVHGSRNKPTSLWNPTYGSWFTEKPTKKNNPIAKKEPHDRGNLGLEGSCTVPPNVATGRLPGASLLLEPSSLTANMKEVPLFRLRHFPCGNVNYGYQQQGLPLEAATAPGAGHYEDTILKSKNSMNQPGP
Background: ELISA stands for enzyme-linked immunosorbent assay.

Data set [4] addresses T1, ALK. Description: Inhibition of ALK phosphorylation (sandwich ELISA, pY1604) in Karpas299 cells. Also on record: NPM1 portion (fusion partner, nucleophosmin, P06748); host or cells: Karpas299; SU-DHL-1; the other entry of the earlier key: NPM1 (P06748, Nucleophosmin). Format: cell-based. Particulars: 1 hour, serum-free. As to the method:
as §1
Target sequence in this assay (Q9UM73 with tags, fused parts or gaps): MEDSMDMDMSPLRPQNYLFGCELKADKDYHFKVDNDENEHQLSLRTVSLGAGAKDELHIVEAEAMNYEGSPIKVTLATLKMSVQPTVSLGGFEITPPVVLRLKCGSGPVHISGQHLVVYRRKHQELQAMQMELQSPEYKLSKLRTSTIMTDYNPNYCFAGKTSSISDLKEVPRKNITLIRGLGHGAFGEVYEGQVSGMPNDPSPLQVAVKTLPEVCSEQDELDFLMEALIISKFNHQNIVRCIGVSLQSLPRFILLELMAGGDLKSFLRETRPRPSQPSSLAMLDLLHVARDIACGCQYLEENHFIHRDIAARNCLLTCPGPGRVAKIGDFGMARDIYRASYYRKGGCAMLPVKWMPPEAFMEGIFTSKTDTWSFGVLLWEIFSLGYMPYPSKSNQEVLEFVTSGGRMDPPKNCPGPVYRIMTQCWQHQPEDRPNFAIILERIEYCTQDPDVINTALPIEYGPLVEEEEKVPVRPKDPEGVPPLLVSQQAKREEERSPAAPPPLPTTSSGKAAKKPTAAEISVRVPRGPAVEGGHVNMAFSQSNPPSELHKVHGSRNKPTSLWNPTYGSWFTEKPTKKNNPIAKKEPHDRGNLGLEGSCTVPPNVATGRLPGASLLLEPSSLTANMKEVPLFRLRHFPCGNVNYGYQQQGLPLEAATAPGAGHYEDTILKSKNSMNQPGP

Data set [5] has as its target T1, ALK. Description: Inhibition of ALK phosphorylation (sandwich ELISA, pY1604) in SU-DHL-1 cells. Set-up: NPM1 portion (fusion partner, nucleophosmin, P06748); host or cells: Karpas299; SU-DHL-1; the other entry of the earlier key: NPM1 (P06748, Nucleophosmin). The settings on record: 1 hour, serum-free. Format: cell-based. As to the method: as §1
In a further data set the target is T2, ALK mutant L1196M (Homo sapiens, UniProt Q9UM73, L1196M).
T2 construct: purchased Carna Biosciences (Chuo-ku, Kobe, Japan)
T2 sequence (Q9UM73 19-1620 L1196M): as the sequence (Q9UM73 19-1620) above, with L1178M counted along it
Description: Off-chip mobility shift assay (Carna Biosciences), ALK L1196M. It is filed as biochemical. As to the method:
(§3) The activities of ALK wild type, its mutant F1174L, R1275Q, L1196M and EML4-ALK, NPM1-ALK were also determined using off-chip mobility shift assay at Carna Biosciences (Chuo-ku, Kobe, Japan). In brief, 5 μL of ×4 compound solution, 5 μL of ×4 substrate/ATP/metal solution and 10 μL of ×2 kinase solution were prepared with assay buffer (20 mM HEPES, 0.01% Triton X-100, 2 mM DTT, pH 7.5) and mixed and incubated in a well of polypropylene 384 well microplate for 1 or 5 hours (depending on the enzyme). The ATP concentration used in the reaction was 50 μM for ALK wild type, F1174L mutant, EML4-ALK and NPM1-ALK, and 100 μM for R1275Q and 72 μM for L1196M. An aliquot of 60 μL of termination buffer (QuickScout Screening Assist MSA, Carna Biosciences) was added to each well to terminate the reactions. The reaction mixture was applied to LabChip3000 system (Caliper Life Science), and the product and substrate peptide peaks were separated and quantitated. The kinase reaction was evaluated by the product ratio calculated from peak heights of product (P) and substrate (S) peptides (P/(P+S)). IC50 value was calculated from concentration vs. % Inhibition curves by fitting to a four parameter logistic curve.

The next data set deals with T3, EML4-ALK (Homo sapiens, UniProt Q9UM73).
T3 construct: purchased Carna Biosciences (Chuo-ku, Kobe, Japan); the other entry of the earlier key: EML4 (Q9HC35, Echinoderm microtubule-associated protein-like 4)
T3 sequence (Q9UM73 with tags, fused parts or gaps): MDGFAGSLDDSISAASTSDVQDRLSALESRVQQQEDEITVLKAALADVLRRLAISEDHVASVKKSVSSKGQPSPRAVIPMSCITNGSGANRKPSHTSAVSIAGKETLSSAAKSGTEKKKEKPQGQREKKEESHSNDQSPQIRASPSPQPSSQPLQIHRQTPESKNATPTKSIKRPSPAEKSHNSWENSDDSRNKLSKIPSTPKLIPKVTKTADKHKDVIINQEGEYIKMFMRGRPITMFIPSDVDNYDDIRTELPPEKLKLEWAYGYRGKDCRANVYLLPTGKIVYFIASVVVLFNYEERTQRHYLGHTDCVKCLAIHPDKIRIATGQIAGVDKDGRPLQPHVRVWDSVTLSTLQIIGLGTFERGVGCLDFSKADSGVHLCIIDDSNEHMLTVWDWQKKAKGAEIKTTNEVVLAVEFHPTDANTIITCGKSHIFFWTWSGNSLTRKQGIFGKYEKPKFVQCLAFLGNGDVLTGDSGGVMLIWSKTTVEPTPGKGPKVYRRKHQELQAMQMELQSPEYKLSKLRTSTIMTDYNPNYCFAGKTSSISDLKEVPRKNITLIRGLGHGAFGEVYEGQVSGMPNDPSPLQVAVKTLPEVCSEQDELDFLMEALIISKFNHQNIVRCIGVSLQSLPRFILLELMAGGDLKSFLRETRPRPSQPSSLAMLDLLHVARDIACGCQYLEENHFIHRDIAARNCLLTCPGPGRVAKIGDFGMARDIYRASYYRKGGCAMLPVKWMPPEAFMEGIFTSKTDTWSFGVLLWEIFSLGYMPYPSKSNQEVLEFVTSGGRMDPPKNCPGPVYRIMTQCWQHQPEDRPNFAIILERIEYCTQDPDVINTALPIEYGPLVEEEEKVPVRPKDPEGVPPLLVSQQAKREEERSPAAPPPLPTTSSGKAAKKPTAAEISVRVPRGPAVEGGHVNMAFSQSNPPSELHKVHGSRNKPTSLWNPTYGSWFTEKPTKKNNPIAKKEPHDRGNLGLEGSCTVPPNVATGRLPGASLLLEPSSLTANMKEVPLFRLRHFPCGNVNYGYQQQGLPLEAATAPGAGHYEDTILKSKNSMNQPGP
Description: Off-chip mobility shift assay (Carna Biosciences), EML4-ALK. It is filed as biochemical. As to the method: as §3

For data set [6], the system named is lung cancer cell line H2228. Description: H2228 xenograft studies in athymic mice. It is filed as in vivo, athymic mice (nude/nud mouse). An excerpt: Xenograft model was developed in athymic mice (nude/nud mouse) with lung cancer cell line H2228 purchased from the American Type Culture Collection Company (Manassas, Va., USA). In brief, H2228 cells (1×10^7) were implanted s.c. into the hind flank region of each mouse and allowed to grow to the designated size (c.a. 150-200 mm^3) before administration of the tested articles. The tested articles were given orally at various dose levels twice daily for 10-14 days. Tumor volume and body weight were measured during the experiments. Tumor regression values were determined using the standard approach.

The target of the next data set is T4, ALK mutant R1275Q (Homo sapiens, UniProt Q9UM73, R1275Q).
T4 construct: purchased Carna Biosciences (Chuo-ku, Kobe, Japan)
T4 sequence (Q9UM73 19-1620 R1275Q): as the sequence (Q9UM73 19-1620) above, with R1257Q counted along it
Description: Off-chip mobility shift assay (Carna Biosciences), ALK R1275Q. It is filed as biochemical. As to the method:
as §3

A further data set concerns the target T5, NPM1-ALK (Homo sapiens, UniProt Q9UM73).
T5 construct: purchased Carna Biosciences (Chuo-ku, Kobe, Japan); the other entry of the earlier key: NPM1 (P06748, Nucleophosmin)
Description: Off-chip mobility shift assay (Carna Biosciences), NPM1-ALK. It is filed as biochemical. As to the method: as §3

Another data set concerns the target T6, ALK mutant F1174L (Homo sapiens, UniProt Q9UM73, F1174L).
T6 construct: purchased Carna Biosciences (Chuo-ku, Kobe, Japan)
Description: Off-chip mobility shift assay (Carna Biosciences), ALK F1174L. Format: biochemical. As to the method: as §3

The next data set deals with T7, ALK wild type (Homo sapiens, UniProt Q9UM73).
T7 construct: purchased Carna Biosciences (Chuo-ku, Kobe, Japan)
T7 sequence (Q9UM73 19-1620): as the sequence (Q9UM73 19-1620) above
Description: Off-chip mobility shift assay (Carna Biosciences), ALK wild type. It is filed as biochemical. As to the method:
as §3

T6 sequence (Q9UM73 19-1620 F1174L): as the sequence (Q9UM73 19-1620) above, with F1156L counted along it

`CC(Oc1cc(-c2ccc(P(C)(C)=O)cc2)cnc1N)c1c(Cl)ccc(F)c1Cl` (centres unmarked) [Example 1, 3-[1-(2,6-dichloro-3-fluoro-phenyl)ethoxy]-5-(4-dimethylphosphorylphenyl)pyridin-2-amine]: the IC50 (commonly the concentration that inhibits the measured activity by half) on ALK [1] is 100 to 500 nM; in the data set with Karpas299, 100 to 500 nM; with H2228 it was < 100 nM; in the data set on SU-DHL-1, < 100 nM; at ALK [3] it was < 500 nM; at ALK [4], < 100 nM. Besides, in data set [2], the half-life (commonly the time needed for the level to fall by half in the phase considered) is > 3 h. Further, in data set [2], the bioavailability was > 20%.

With `CC(Oc1cc(-c2cnn(C3CCN(CP(C)(C)=O)CC3)c2)cnc1N)c1c(Cl)ccc(F)c1Cl` (centres unmarked) [Example 2, 3-[1-(2,6-dichloro-3-fluoro-phenyl)ethoxy]-5-[1-[1-(dimethylphosphorylmethyl)-4-piperidyl]pyrazol-4-yl]pyridin-2-amine], the IC50 was < 100 nM on ALK [1], 1000 to 5000 nM with H2228 and < 500 nM at ALK [3].

For `COc1cc(P(C)(C)=O)ccc1-c1cnc(N)c(OC(C)c2c(Cl)ccc(F)c2Cl)c1` (centres unmarked) [Example 8, 3-[1-(2,6-dichloro-3-fluoro-phenyl)ethoxy]-5-(4-dimethylphosphoryl-2-methoxy-phenyl)pyridin-2-amine], the IC50 on ALK [1] was < 100 nM; in the data set on Karpas299, < 100 nM; against ALK [5], < 50 nM; in the data set with H2228 it was < 100 nM; in the data set on SU-DHL-1, < 100 nM; on ALK [4], < 100 nM. Besides, the half-life in data set [2] is > 3 h. The bioavailability in data set [2] is > 20%.

In the case of `C[C@@H](Oc1cc(-c2ccc(P(C)(C)=O)cc2)cnc1N)c1c(Cl)ccc(F)c1Cl` [Example 23, 3-[(1R)-1-(2,6-dichloro-3-fluoro-phenyl)ethoxy]-5-(4-dimethylphosphorylphenyl)pyridin-2-amine], the IC50 is 100 to 500 nM against ALK [1]; < 100 nM with Karpas299; < 50 nM against ALK [5]; < 100 nM in the data set with H2228; < 100 nM in the data set with SU-DHL-1; < 50 nM on ALK [3]. The half-maximal inhibitory concentration (IC50) on ALK [4] was < 100 nM.

Regarding `COc1cc(P(C)(C)=O)ccc1-c1cnc(N)c(O[C@H](C)c2c(Cl)ccc(F)c2Cl)c1` [Example 24, 3-[(1R)-1-(2,6-dichloro-3-fluoro-phenyl)ethoxy]-5-(4-dimethylphosphoryl-2-methoxy-phenyl)pyridin-2-amine], the IC50 on ALK mutant L1196M (footnote #: L1196M, read-out: IC50 ALK Kinase (# mutant L1196M)) was < 100 nM; at ALK mutant L1196M (mobility shift, ATP 72 μM, read-out: IC50 ALK L1196M), < 50 nM; in the data set with Karpas299, < 100 nM; on EML4-ALK (footnote #: EML4-ALK, read-out: IC50 ALK Kinase (# EML4-ALK)), < 100 nM; on EML4-ALK (mobility shift, ATP 50 μM, read-out: IC50 EML4-ALK), < 50 nM; against ALK [5], < 50 nM. Moreover, the half-inhibitory concentration (IC50) in the data set on H2228 was < 100 nM; in the data set with SU-DHL-1 it was < 100 nM; at ALK mutant R1275Q (footnote #: R1275Q, read-out: IC50 ALK Kinase (# mutant R1275Q)), < 100 nM; at ALK mutant R1275Q (mobility shift, ATP 100 μM, read-out: IC50 ALK R1275Q), < 50 nM; at NPM1-ALK (footnote #: NPM1-ALK, read-out: IC50 ALK Kinase (# NPM1-ALK)) it was < 100 nM; at NPM1-ALK (mobility shift, ATP 50 μM, read-out: IC50 NPM1-ALK), < 50 nM. Besides, the IC50 at ALK mutant F1174L (footnote #: F1174L, read-out: IC50 ALK Kinase (# mutant F1174L)) was < 100 nM; at ALK mutant F1174L (mobility shift, ATP 50 μM, read-out: IC50 ALK F1174L), < 50 nM; against ALK [3] it was < 50 nM; against ALK [4], < 100 nM; on ALK wild type (footnote #: ALK wild type, read-out: IC50 ALK Kinase (# ALK wild type)), < 100 nM; at ALK wild type (mobility shift, ATP 50 μM, read-out: IC50 ALK wild type), < 50 nM. The “inhibition of tumor growth compared to the vehicle control” value in data set [6] (20 mg/kg oral BID) is recorded as 79%; in data set [6] (60 mg/kg oral BID), 93%. Besides, the “reduced the tumor size” value in data set [6] (14 days oral dosing at 60 mg/kg (BID)) is “approximately 80%”.
